Experimental data from patent EP2762573A1, “In vitro method for determining cholestatic properties of a compound” (priority 2013, dated 2014).

Key:
Conditions in all cases: male, C57BL/6, mouse
[1] = test system: Bcl2l11; assay: Biomarkers validation by q-pcr in precision cut liver slices: Bcl2l11 expression
Protocol: (§1) 23-weeks old male C57BL/6 mice were obtained from Harlan (Horst, The Netherlands). Animals were kept for 1 week at a housing temperature of 22°C and at a relative humidity of 30-70%. The lighting cycle was 12-h light and 12-h dark. At the age of 24 weeks animals were sacrificed by an overdose of isoflurane. The treatment protocol was approved by the Ethical Committee for Animal Experiments at Wageningen University.
(§2) Immediately after the animals were killed the liver was perfused with PBS and placed in ice-cold Krebs-Henseleit buffer (KHB) (pH 7.4, supplemented with 11 mM glucose). Liver tissue was transported to the laboratory within approximately 30 min and cylindrical liver cores were produced using a surgical biopsy punch with diameter of 5 mm (KAI, SynErgo Europe, Romania). Liver cores were placed in a Krumdieck tissue slicer (Alabama Research and Development, Munford, AL) filled with ice-cold KHB aerated with carbogen and supplemented with 11 mM glucose. Precesion cut liver slices (PCLS) with a diameter of 5 mm, a thickness of 0.2 mm and a weight of approximately 10 mg were prepared. Immediately after preparation, slices were transferred into culture plates filled with pre-warmed (37 degrees C) Williams E medium (WEM). Three liver slices were pre-cultured in one well of the 6-well plate filled with 4 ml of WEM for one hour with continuous shaking (70 rpm). Incubations were performed in an oxygen controlled incubator (Galaxy 48 R New Brunswick, Nijmegen, the Netherlands) at 80% of oxygen; 5% CO2 and the remaining gas volume was filled up to […] with N2. After one hour of pre-incubation, media were removed and replaced with fresh media containing test compounds or appropriate solvents. After incubations, samples were snap-frozen in liquid nitrogen and stored in -80 °C for further analysis. Samples dedicated to histology were stored in 4 % formaldehyde at room temperature.
(§3) PCLS were incubated at the same conditions as described above. Slices were exposed for 24 and 48 hours to one concentration of the tested compounds or controls. Concentrations used in the exposure experiments were preselected in the dose selection experiments for each drug individually. […] For the necrotic compounds: 1000 uM acetaminophen, 5 µM paraquat and 1000 uM isoniazid. Liver slices obtained from five mice were used in five toxic compound or control exposure experiments performed at the same time. Dose selection experiments and exposure experiments were performed at different days. Therefore, ATP, LDH, and protein assays were performed again for the exposure experiments to confirm that the selected doses did also not affect slice viability in these experiments.
(§4) In further studies, expression of ten candidate biomarkers in PCLS was analyzed by q-pcr using the Biorad CFX96 TM Real-Time Detection System (Bio-Rad, Veenendaal, The Netherlands) with the following cycling conditions: 15 min 95°C followed by 40 cycles of 15s 95 °C and 1 min 60 °C. Reactions were performed in 10 µl and contained 20 ng cDNA, 1x TaqMan PCR Master Mix (Applied Biosystems, Foster City, CA), and depending on the analysed gene, 250 nM probe and 900 nM primer (for actin b) or 1xTaqMan gene expression assay (for the remaining genes) (Applied Biosystems, foster City, CA).

[2] = test system: Parp16; assay: Biomarkers validation by q-pcr in precision cut liver slices: Parp16 expression
Protocol: as §1, §2, §3, §4

[3] = test system: Mras; assay: Biomarkers validation by q-pcr in precision cut liver slices: Mras expression
Protocol: as §1, §2, §3, §4

[4] = test system: Myo1e; assay: Biomarkers validation by q-pcr in precision cut liver slices: Myo1e expression
Protocol: as §1, §2, §3, §4

[5] = test system: Nme6; assay: Biomarkers validation by q-pcr in precision cut liver slices: Nme6 expression
Protocol: as §1, §2, §3, §4

[6] = test system: ABCG5; assay: Biomarkers validation by q-pcr in precision cut liver slices: ABCG5 expression
Protocol: as §1, §2, §3, §4

[7] = test system: ABCG8; assay: Biomarkers validation by q-pcr in precision cut liver slices: ABCG8 expression
Protocol: as §1, §2, §3, §4

[8] = test system: SERPINE1; assay: Biomarkers validation by q-pcr in precision cut liver slices: SERPINE1 expression
Protocol: as §1, §2, §3, §4

[9] = test system: BAAT; assay: Biomarkers validation by q-pcr in precision cut liver slices: BAAT expression
Protocol: as §1, §2, §3, §4

[10] = test system: KLF15; assay: Biomarkers validation by q-pcr in precision cut liver slices: KLF15 expression
Protocol: as §1, §2, §3, §4

[11] = test system: PCLS; assay: Cytotoxicity analysis - dose selection experiments (LDH, ATP, protein assay)
Protocol: as §1, §2, §3

- *fold change 1, gene expression level Bcl2111 [1]: -1,2
- *fold change 2, gene expression level Bcl2111 [1]: -1,4
- *fold change 3, gene expression level Bcl2111 [1]: -1,2
- *fold change 4, gene expression level Bcl2111 [1]: -1,9
- *fold change 5, gene expression level Bcl2111 [1]: -2,3
- *fold change 1, gene expression level Parp 16 [2]: -1,1
- *fold change 2, gene expression level Parp 16 [2]: -1,4
- *fold change 3, gene expression level Parp 16 [2]: -1,1
- *fold change 4, gene expression level Parp 16 [2]: -1,4
- *fold change 5, gene expression level Parp 16 [2]: -1,0
- *fold change 1, gene expression level Mras [3]: 1,3
- *fold change 2, gene expression level Mras [3]: 2,0
- *fold change 3, gene expression level Mras [3]: 2,6
- *fold change 4, gene expression level Mras [3]: 1,4
- *fold change 5, gene expression level Mras [3]: 1,1
- *fold change 1, gene expression level Myo 1e [4]: -1,1
- *fold change 2, gene expression level Myo 1e [4]: -1,0
- *fold change 3, gene expression level Myo 1e [4]: 1,1
- *fold change 4, gene expression level Myo 1e [4]: 1,0
- *fold change 5, gene expression level Myo 1e [4]: -1,1
- *fold change 1, gene expression level Nme6 [5]: 1,1
- *fold change 2, gene expression level Nme6 [5]: 1,3
- *fold change 3, gene expression level Nme6 [5]: 1,7
- *fold change 4, gene expression level Nme6 [5]: 1,3
- *fold change 5, gene expression level Nme6 [5]: 1,2
- *fold change 1, gene expression level ABCG5 [6]: -4,2
- *fold change 2, gene expression level ABCG5 [6]: -2,9
- *fold change 3, gene expression level ABCG5 [6]: -6,7
- *fold change 4, gene expression level ABCG5 [6]: -3,8
- *fold change 5, gene expression level ABCG5 [6]: -1,0
- *fold change 1, gene expression level ABCG8 [7]: -2,9
- *fold change 2, gene expression level ABCG8 [7]: -2,1
- *fold change 3, gene expression level ABCG8 [7]: -5,4
- *fold change 4, gene expression level ABCG8 [7]: -4,5
- *fold change 5, gene expression level ABCG8 [7]: -1,1
- *fold change 1, gene expression level SERPINE1 [8]: 2,9
- *fold change 2, gene expression level SERPINE1 [8]: -1,4
- *fold change 3, gene expression level SERPINE1 [8]: -4,7
- *fold change 4, gene expression level SERPINE1 [8]: -5,8
- *fold change 5, gene expression level SERPINE1 [8]: -1,8
- *fold change 1, gene expression level BAAT [9]: -2,3
- *fold change 2, gene expression level BAAT [9]: -3,3
- *fold change 3, gene expression level BAAT [9]: -8,5
- *fold change 4, gene expression level BAAT [9]: -6,4
- *fold change 5, gene expression level BAAT [9]: 1,4
- *fold change 1, gene expression level KLF15 [10]: -2,0
- *fold change 2, gene expression level KLF15 [10]: -1,8
- *fold change 3, gene expression level KLF15 [10]: -3,2
- *fold change 4, gene expression level KLF15 [10]: -1,8
- *fold change 5, gene expression level KLF15 [10]: 1,6
Structure (SMILES): CN(C)CCCN1c2ccccc2Sc2ccc(Cl)cc21 [CPZ, chlorpromazine]
- highest concentration that did not cause significant increase of toxicity [11]: 10 µM
